Assay results from ChEMBL document CHEMBL6071152, “Design, synthesis, and biological evaluation of oridonin derivatives as novel NLRP3 inflammasome inhibitors for the treatment of acute lung injury” (Eur J Med Chem, 2024).
Active and inactive are the calls of the source. The rule behind the calls is not given here.

Tests used:
[1] = biological target: NACHT, LRR and PYD domains-containing protein 3 (Mus musculus, UniProt Q8R4B8); experiment: Inhibition of NLRP3 inflammasome activation in ICR mouse BMDM assessed as inhibition of LPS/ATP-stimulated IL-1 beta production in cell supernatant treated for 3 hrs with LPS followed by incubation with compound for 1 hr and later stimulated with ATP for 0.5 hrs by ELISA; format: cell-based
NACHT, LRR and PYD domains-containing protein 3, sequence (Q8R4B8 whole entry, the tested form may be a part): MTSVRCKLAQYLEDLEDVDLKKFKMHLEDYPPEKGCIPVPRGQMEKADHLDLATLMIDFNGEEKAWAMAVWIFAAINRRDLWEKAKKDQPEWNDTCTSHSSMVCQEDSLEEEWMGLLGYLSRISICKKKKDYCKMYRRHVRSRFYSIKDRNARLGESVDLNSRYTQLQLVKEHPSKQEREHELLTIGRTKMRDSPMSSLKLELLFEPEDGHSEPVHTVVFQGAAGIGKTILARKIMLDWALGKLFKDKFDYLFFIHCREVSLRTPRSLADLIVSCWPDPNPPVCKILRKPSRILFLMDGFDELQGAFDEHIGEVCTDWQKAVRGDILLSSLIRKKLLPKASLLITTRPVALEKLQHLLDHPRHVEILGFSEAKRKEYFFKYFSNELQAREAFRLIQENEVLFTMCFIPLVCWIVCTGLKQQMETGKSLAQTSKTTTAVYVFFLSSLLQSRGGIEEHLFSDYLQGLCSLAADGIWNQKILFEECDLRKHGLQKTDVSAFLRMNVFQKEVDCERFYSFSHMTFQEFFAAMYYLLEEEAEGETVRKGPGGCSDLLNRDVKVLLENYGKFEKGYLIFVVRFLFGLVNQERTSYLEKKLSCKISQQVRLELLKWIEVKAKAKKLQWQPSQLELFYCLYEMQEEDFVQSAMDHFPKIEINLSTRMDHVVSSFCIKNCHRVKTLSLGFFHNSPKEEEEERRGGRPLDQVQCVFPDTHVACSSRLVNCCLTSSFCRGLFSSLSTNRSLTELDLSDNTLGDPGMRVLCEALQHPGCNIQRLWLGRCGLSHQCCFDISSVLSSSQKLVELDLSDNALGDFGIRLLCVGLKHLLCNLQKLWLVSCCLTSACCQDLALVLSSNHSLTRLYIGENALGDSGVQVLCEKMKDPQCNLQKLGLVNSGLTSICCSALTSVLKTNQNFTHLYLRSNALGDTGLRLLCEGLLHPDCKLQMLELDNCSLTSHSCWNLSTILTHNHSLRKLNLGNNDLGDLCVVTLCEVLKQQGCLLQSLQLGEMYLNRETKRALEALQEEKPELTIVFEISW

[2] = Cytotoxicity against ICR mouse BMDM assessed as reduction in cell viability incubated for 24 hrs by CCK8 assay; format: toxicity, cell-based; details: BMDM (bone marrow-derived macrophages)
[3] = system: Mus musculus; experiment: Anti-inflammatory activity against LPS-stimulated acute lung injury C57BL/6 mouse model assessed as active animal at 5 mg/kg, ip treated for 3 days and on third day administered with LPS at 30 mins post-compound challenge; format: functional, organism-based; details: time 3.0 day
[4] = system: Mus musculus; experiment: (§1) Anti-inflammatory activity against LPS-stimulated acute lung injury C57BL/6 mouse model assessed as decrease in weight loss at 5 mg/kg, ip treated for 3 days and on third day administered with LPS at 30 mins post-compound challenge; format: functional, organism-based; details: time 3.0 day
[5] = system: Mus musculus; experiment: as §1, with “inflammatory cell infiltration in right lung” for “weight loss”, “challenge and measured after 12 hrs by Hematoxylin-Eosin staining analysis” for “challenge”; format: functional, organism-based; details: time 3.5 day
[6] = system: Mus musculus; experiment: as §1, with “alveolar dilation in right lung” for “weight loss”, “challenge and measured after 12 hrs by Hematoxylin-Eosin staining analysis” for “challenge”; format: functional, organism-based; details: time 3.5 day
[7] = system: Mus musculus; experiment: as §1, with “thickening of alveolar septa in right lung” for “weight loss”, “challenge and measured after 12 hrs by Hematoxylin-Eosin staining analysis” for “challenge”; format: functional, organism-based; details: time 3.5 day
[8] = system: Mus musculus; experiment: as §1, with “partial alveolar congestion in right lung” for “weight loss”, “challenge and measured after 12 hrs by Hematoxylin-Eosin staining analysis” for “challenge”; format: functional, organism-based; details: time 3.5 day
[9] = system: Mus musculus; experiment: Anti-inflammatory activity against LPS-stimulated acute lung injury C57BL/6 mouse model assessed as decrease in weight loss at 1 mg/kg, ip treated for 3 days and on third day administered with LPS at 30 mins post-compound challenge; format: functional, organism-based; details: time 3.0 day

Row | IC50 [1] [µM] | SMILES | IC50 at 24 h [2] [µM] | also measured
1 | 0.0961 | C=C1C(=O)[C@]23[C@H](OC(=O)Nc4ccccn4)[C@H]1CC[C@H]2[C@]12C=CCC(C)(C)[C@H]1[C@H](O)[C@@]3(O)OC2 | > 10 | –
2 | – | CC(C)(O)c1coc(S(=O)(=O)NC(=O)Nc2c3c(cc4c2CCC4)CCC3)c1 | > 10 | –
3 | 0.0886 | C=C1C(=O)[C@]23[C@H](OC(=O)Nc4ccccc4Cl)[C@H]1CC[C@H]2[C@]12C=CCC(C)(C)[C@H]1[C@H](O)[C@@]3(O)OC2 | > 10 | –
4 | 0.0808 | C=C1C(=O)[C@]23[C@H](OC(=O)Nc4cccc(Cl)c4)[C@H]1CC[C@H]2[C@]12C=CCC(C)(C)[C@H]1[C@H](O)[C@@]3(O)OC2 | > 10 | –
5 | 0.178 | C=C1C(=O)[C@]23[C@H](OC(=O)NC4CCCC4)[C@H]1CC[C@H]2[C@]12C=CCC(C)(C)[C@H]1[C@H](O)[C@@]3(O)OC2 | > 10 | –
6 | 0.135 | C=C1C(=O)[C@]23[C@H](OC(=O)NC4CCCCC4)[C@H]1CC[C@H]2[C@]12C=CCC(C)(C)[C@H]1[C@H](O)[C@@]3(O)OC2 | > 10 | –
7 | 0.0749 | C=C1C(=O)[C@]23[C@H](OC(=O)Nc4cccc5ccccc45)[C@H]1CC[C@H]2[C@]12C=CCC(C)(C)[C@H]1[C@H](O)[C@@]3(O)OC2 | > 10 | –
8 | – | C[C@@H]1C[C@H]2[C@@H]3CCC4=CC(=O)C=C[C@]4(C)[C@@]3(F)[C@@H](O)C[C@]2(C)[C@@]1(O)C(=O)CO | – | Activity [3]: Active; Activity [4]: Active; Activity [5]: Active; Activity [6]: Active; Activity [7]: Active; Activity [8]: Active
9 | 1.24 | C=C1C(=O)[C@]23[C@H](O)[C@H]1CC[C@H]2[C@@]12CO[C@]3(O)[C@@H](O)[C@@H]1C(C)(C)CC[C@@H]2O [ORIDONIN] | > 10 | Activity [9]: Active

Row | SMILES | IC50 [1] [µM] | IC50 at 24 h [2] [µM] | also measured
10 | C=C1C(=O)[C@]23[C@H](O)[C@H]1CC[C@H]2[C@]12C=CCC(C)(C)[C@H]1[C@H](O)[C@@]3(O)OC2 | 0.131 | > 10 | –
